The values below come from patent US11753407B2, “Compounds for treating spinal muscular atrophy” (PTC Therapeutics, Inc., priority 2012, dated 2023).

Usually melting point stands for the temperature, or range, at which the solid turns liquid.

The subject of data set [1] is SMN2 minigene mRNA (SMN2-A minigene) in HEK293H cells. In words: SMN2 minigene mRNA splicing RT-qPCR assay in cultured cells. The conditions noted are these: Homo sapiens, HEK293-H; concentration increasing full length SMN2 mRNA 1.5-fold relative to vehicle-treated cells; HEK293H cells with SMN2-A minigene, 24 hours, 7-point concentration data; read-out: EC1.5x for production of full length SMN2 mRNA. Format: cell-based, human. An outline of the steps:
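HEK293H cells stably carrying SMN2-A minigene treated with compounds (7-point, 3.16-fold dilutions, duplicates) for 24 h at 37 °C. Full-length exon 7-containing minigene mRNA measured by multiplex RT-qPCR with GAPDH, normalized and expressed relative to vehicle (modified ΔΔCt); EC1.5× is concentration giving 1.5-fold increase.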
Background: In qPCR the cycle at which signal appears reflects the starting amount.

The subject of data set [2] is Smn protein in SMA patient fibroblast cells (GM03813). In words: Smn protein assay in cultured cells (SMN HTRF). Format: cell-based, human. Particulars: SMA patient fibroblast cells, 48 hours; for EC1.5x for Smn protein expression: 7-point concentration curve, SMN HTRF, concentration producing 1.5 times Smn protein vs DMSO vehicle control; for maximum fold (Fold) increase of Smn protein: 7-point concentration data, fold relative to vehicle control. The method in brief:
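SMA patient fibroblasts (5,000/well, DMEM-10% FBS) treated 48 h at 37° C with 7-point, 3.16-fold compound series in triplicate; lysates read by SMN HTRF (665/620 nm ratio). Fold Smn increase over DMSO vehicle derived; EC1.5× is concentration giving 1.5-fold Smn, with maximum fold also reported.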
(Time-resolved FRET reads energy transfer from a long-lived donor to a nearby acceptor.)

Turning to `Cc1cn2nc(-c3cc(=O)n4cc(N5CCNCC5)ccc4n3)cc2c(C2CC2)n1` [Compound 683, 2-(4-cyclopropyl-6-methylpyrazolo[1,5-a]pyrazin-2-yl)-7-(piperazin-1-yl)-4H-pyrido[1,2-a]pyrimidin-4-one], the melting point lay in the range of 226 to 229 °C. Moreover, the EC (1.5-fold increase) in data set [1] is less than 0.1 µM. In addition, in data set [2], the “EC1.5x for Smn protein expression” value is “*** (an EC1.5× between >0.3 μM and ≤1 μM is indicated by three stars (***))”; the “maximum fold (Fold) increase of Smn protein” value (from here on “maximum fold (Fold) increase”) was “***** (a fold increase >1.65 is indicated by five stars (*****))”.
Take `CCc1nc(C)cn2nc(-c3cc(=O)n4cc(N5CCN(C(C)C)[C@H](C)C5)ccc4n3)cc12` [Compound 643, 2-(4-ethyl-6-methylpyrazolo[1,5-a]pyrazin-2-yl)-7-[(3R)-3-methyl-4-(propan-2-yl)piperazin-1-yl]-4H-pyrido[1,2-a]pyrimidin-4-one]: the melting point lay within 242 to 244 °C. In addition, the EC (1.5-fold increase) in data set [1] was in the range of 0.1 to 0.3 µM. Also, in data set [2], the “EC1.5x for Smn protein expression” value is “*** (an EC1.5× between >0.3 μM and ≤1 μM is indicated by three stars (***))”; the “maximum fold (Fold) increase” value is given as “***** (a fold increase >1.65 is indicated by five stars (*****))”.
With `Cc1cn2cc(-c3cc(=O)n4cc(C5=CCN(CCO)CC5)ccc4n3)ccc2n1` [Compound 577, 7-[1-(2-hydroxyethyl)-1,2,3,6-tetrahydropyridin-4-yl]-2-(2-methylimidazo[1,2-a]pyridin-6-yl)-4H-pyrido[1,2-a]pyrimidin-4-one], the melting point fell in the range of 248 to 250 °C. The EC (1.5-fold increase) in data set [1] is less than 0.1 µM. In addition, in data set [2], the “EC1.5x for Smn protein expression” value is “**** (an EC1.5x≤0.3 μM is indicated by four stars (****))” and the “maximum fold (Fold) increase” value is recorded as “***** (a fold increase >1.65 is indicated by five stars (*****))”.
Turning to `Cc1nc2cc(-c3cc(=O)n4cc(N5CCN6CCC[C@H]6C5)ccc4n3)ccc2s1` [Compound 178, 7-[(8aS)-hexahydropyrrolo[1,2-a]pyrazin-2(1H)-yl]-2-(2-methyl-1,3-benzothiazol-5-yl)-4H-pyrido[1,2-a]pyrimidin-4-one], the melting point was 254 to 256 °C. For the same compound, the EC (1.5-fold increase) in data set [1] was in the range of 0.3 to 1 µM. The “maximum fold (Fold) increase” value in data set [2] is “** (a fold increase between >1.2 and ≤1.35 is indicated by two stars (**))”.
Compound `Cc1cn2cc(-c3cc(=O)n4cc(N5CCCN(C)CC5)ccc4n3)cc(F)c2n1` [Compound 211, 2-(8-fluoro-2-methylimidazo[1,2-a]pyridin-6-yl)-7-(4-methyl-1,4-diazepan-1-yl)-4H-pyrido[1,2-a]pyrimidin-4-one] had a melting point of 262 to 266 °C. Also, the EC (1.5-fold increase) in data set [1] was less than 0.1 µM. For the same compound, in data set [2], the “EC1.5x for Smn protein expression” value is listed as “**** (an EC1.5x≤0.3 μM is indicated by four stars (****))”; the “maximum fold (Fold) increase” value is “**** (a fold increase between >1.5 and ≤1.65 is indicated by four stars (****))”.
For `O=c1cc(-c2ccc(C(F)(F)F)cc2)nc2ccc(N3CCNCC3)cn12` [Compound 44, 7-(piperazin-1-yl)-2-[4-(trifluoromethyl)phenyl]-4H-pyrido[1,2-a]pyrimidin-4-one], the melting point is 285 °C (dec.). Besides, in data set [1], the EC (1.5-fold increase) lay in the range of 1 to 3 µM. For the same compound, the “maximum fold (Fold) increase” value in data set [2] was “* (A maximum fold increase of ≤1.2 is indicated by one star (*))”.
`CCN1CCN(c2ccc3nc(-c4cc5cnc(C)cn5n4)cc(=O)n3c2)CC1` [Compound 466, 7-(4-ethylpiperazin-1-yl)-2-(6-methylpyrazolo[1,5-a]pyrazin-2-yl)-4H-pyrido[1,2-a]pyrimidin-4-one] gave a melting point of 220 to 230 °C. Moreover, the EC (1.5-fold increase) in data set [1] is less than 0.1 µM. For the same compound, in data set [2], the “EC1.5x for Smn protein expression” value was “*** (an EC1.5× between >0.3 μM and ≤1 μM is indicated by three stars (***))”; the “maximum fold (Fold) increase” value is listed as “***** (a fold increase >1.65 is indicated by five stars (*****))”.
`Cc1nc2cc(-c3cc(=O)n4cc(N5CCCNCC5)ccc4n3)ccc2s1` [Compound 161, 7-(1,4-diazepan-1-yl)-2-(2-methyl-1,3-benzothiazol-5-yl)-4H-pyrido[1,2-a]pyrimidin-4-one] came in with a melting point of 208 to 212 °C. Further, in data set [1], the EC (1.5-fold increase) fell in the range of 0.3 to 1 µM. In data set [2], the “EC1.5x for Smn protein expression” value is “** (an EC1.5× between >1 μM and ≤3 μM is indicated by two stars (**))”; the “maximum fold (Fold) increase” value is “*** (a fold increase between >1.35 and ≤1.5 is indicated by three stars (***))”.
`CCN1CC=C(c2ccc3nc(-c4ccc5nn(C)cc5c4)cc(=O)n3c2)CC1` [Compound 477, 7-(1-ethyl-1,2,3,6-tetrahydropyridin-4-yl)-2-(2-methyl-2H-indazol-5-yl)-4H-pyrido[1,2-a]pyrimidin-4-one] yielded a melting point of 198 to 200 °C. The EC (1.5-fold increase) in data set [1] is less than 0.1 µM. Besides, in data set [2], the “EC1.5x for Smn protein expression” value is recorded as “**** (an EC1.5x≤0.3 μM is indicated by four stars (****))”; the “maximum fold (Fold) increase” value was “**** (a fold increase between >1.5 and ≤1.65 is indicated by four stars (****))”.
The compound `COc1ccc(-c2cc(=O)n3cc(N4C[C@H]5CNC[C@H]5C4)cc(C)c3n2)cc1OC` [Compound 257, 2-(3,4-dimethoxyphenyl)-7-[(3aR,6aS)-hexahydropyrrolo[3,4-c]pyrrol-2(1H)-yl]-9-methyl-4H-pyrido[1,2-a]pyrimidin-4-one] gave a melting point of 215 °C. In data set [1], the EC (1.5-fold increase) is less than 0.1 µM. Besides, in data set [2], the “EC1.5x for Smn protein expression” value was “** (an EC1.5× between >1 μM and ≤3 μM is indicated by two stars (**))”; the “maximum fold (Fold) increase” value was “**** (a fold increase between >1.5 and ≤1.65 is indicated by four stars (****))”.
Compound `COc1ccc(-c2cc(=O)n3cc(N4CCN[C@H](C)C4)ccc3n2)cc1C(F)(F)F` [Compound 68, 2-[4-methoxy-3-(trifluoromethyl)phenyl]-7-[(3R)-3-methylpiperazin-1-yl]-4H-pyrido[1,2-a]pyrimidin-4-one] had a melting point of 205 to 212 °C. The EC (1.5-fold increase) in data set [1] lay within 0.1 to 0.3 µM. In addition, the “maximum fold (Fold) increase” value in data set [2] is “** (a fold increase between >1.2 and ≤1.35 is indicated by two stars (**))”.
`COc1ccc(-c2cc(=O)n3cc(C4=CCN(C)CC4)cc(C)c3n2)cc1F` [Compound 315, 2-(3-fluoro-4-methoxyphenyl)-9-methyl-7-(1-methyl-1,2,3,6-tetrahydropyridin-4-yl)-4H-pyrido[1,2-a]pyrimidin-4-one] gave a melting point of 184 to 190 °C. In data set [1], the EC (1.5-fold increase) was less than 0.1 µM. For the same compound, in data set [2], the “maximum fold (Fold) increase” value is “*** (a fold increase between >1.35 and ≤1.5 is indicated by three stars (***))”.
In the case of `COc1ccc(-c2cc(=O)n3cc(C4=C[C@H]5CC[C@@H](C4)N5)ccc3n2)cc1OC` [Compound 262, 7-[(1R,5S)-8-azabicyclo[3.2.1]oct-2-en-3-yl]-2-(3,4-dimethoxyphenyl)-4H-pyrido[1,2-a]pyrimidin-4-one], the melting point fell in the range of 191 to 194 °C. The EC (1.5-fold increase) in data set [1] lay in the range of 0.1 to 0.3 µM. Moreover, in data set [2], the “EC1.5x for Smn protein expression” value is “*** (an EC1.5× between >0.3 μM and ≤1 μM is indicated by three stars (***))”; the “maximum fold (Fold) increase” value was “***** (a fold increase >1.65 is indicated by five stars (*****))”.
The compound `CCN1CC=C(c2cn3c(=O)cc(-c4ccc5nc(C)oc5c4)nc3cn2)CC1` [Compound 423, 7-(1-ethyl-1,2,3,6-tetrahydropyridin-4-yl)-2-(2-methyl-1,3-benzoxazol-6-yl)-4H-pyrazino[1,2-a]pyrimidin-4-one] gave a melting point of 225 to 227 °C. In addition, the EC (1.5-fold increase) in data set [1] was less than 0.1 µM. Further, in data set [2], the “EC1.5x for Smn protein expression” value is “*** (an EC1.5× between >0.3 μM and ≤1 μM is indicated by three stars (***))”; the “maximum fold (Fold) increase” value is “**** (a fold increase between >1.5 and ≤1.65 is indicated by four stars (****))”.
The compound `Cc1cc2cc(-c3cc(=O)n4cc(N5CCN[C@@H](C)C5)ccc4n3)oc2c(C)n1` [Compound 488, 2-(5,7-dimethylfuro[2,3-c]pyridin-2-yl)-7-[(3S)-3-methylpiperazin-1-yl]-4H-pyrido[1,2-a]pyrimidin-4-one] came in with a melting point of 202 to 204 °C. For the same compound, the EC (1.5-fold increase) in data set [1] was less than 0.1 µM. For the same compound, in data set [2], the “EC1.5x for Smn protein expression” value is listed as “**** (an EC1.5x≤0.3 μM is indicated by four stars (****))”; the “maximum fold (Fold) increase” value was “**** (a fold increase between >1.5 and ≤1.65 is indicated by four stars (****))”.
Take `CCc1nc(C)cn2nc(-c3cc(=O)n4cc(N5CCC(N6CCCC6)CC5)ccc4n3)cc12` [Compound 634, 2-(4-ethyl-6-methylpyrazolo[1,5-a]pyrazin-2-yl)-7-[4-(pyrrolidin-1-yl)piperidin-1-yl]-4H-pyrido[1,2-a]pyrimidin-4-one]: the melting point was in the range of 229 to 232 °C. Besides, in data set [1], the EC (1.5-fold increase) is less than 0.1 µM. Also, in data set [2], the “EC1.5x for Smn protein expression” value is listed as “**** (an EC1.5x≤0.3 μM is indicated by four stars (****))” and the “maximum fold (Fold) increase” value is given as “***** (a fold increase >1.65 is indicated by five stars (*****))”.
